From publication PMC3214044, “In Vitro Recombination of Non-Homologous Genes Can Result in Gene Fusions that Confer a Switching Phenotype to Cells” (PLoS ONE, 2011) come the findings set out here.

The subject of one assay is T1, c4.
T1 construct: gene malE
As to conditions: read-out: Km (μM) / - Maltose; 10 mM sodium phosphate pH 7.0, 37°C, without maltose; BLA domain site; substrate range 100-400 µM, above the Km.

The test system of a further assay is T2, Ph8.
T2 construct: gene malE
The settings on record: read-out: Km (μM) / - Maltose; 10 mM sodium phosphate pH 7.0, 37°C, without maltose; BLA domain site.

Take `CC1(C)S[C@@H]2[C@H](NC(=O)[C@H](N)c3ccccc3)C(=O)N2[C@H]1C(=O)O` [ampicillin]: the values for the Km in the assay with c4 and with Ph8 were 73 ± 4 µM and 730 ± 120 µM, respectively.
